Data published in patent publication EP0294069A2, “Purine compounds, process for their preparation, intermediates and pharmaceutical compositions” (priority 1987, dated 1988).
Values after ≈ are worked out from the molar mass of the structure shown.

Tests used:
[1] = Antiviral potency, comparison of isomers (no method given); details: as compared with the (R)-isomer
[2] = system: Visna Virus (K184 strain in SCP cells); experiment: CPE inhibition test (established monolayer) for lentiviruses; assay type: cell-based; details: Visna-maedi virus
Method: 3 x 10⁴ sheep choroid plexus (SCP) cells were plated into individual wells of a 96 well microtitre plate in 100µl of Eagle's MEM with Hanks salts containing 10% heat inactivated foetal calf serum (FCS). When monolayers had become established (after l or 2 days growth) they were washed with 200µl of maintenance medium (Eagle's MEM with Hanks salts containing 0.5% FCS) and infected with 100µl of visna virus (strain K184) in maintenance medium (30 TCID₅₀/ml). Test samples were diluted with maintenance medium in further 96 well microtitre plates over the range 200-0.09µg/ml by 3-fold dilution steps. 100µl of the diluted samples was then transferred directly onto virus-infected monolayers (final concentration range therefore 100-0.045µg/ml) and incubated at 37°C in a humidified, 5% CO₂ incubation until virus-induced CPE was maximal in the untreated virus-infected controls (usually 12-14 days). The plates were fixed with formal saline and stained with crystal violet. Virus-induced CPE was then scored microscopically and the minimum concentration of sample giving complete protection of the cell monolayers (MIC) determined.

[3] = system: HSV-2 (MS strain, MRC-5 cells); experiment: Plaque reduction test for herpes simplex virus 2; assay type: cell-based; details: Human alphaherpesvirus 2, MRC5, plaque number reduced by 50%
Method: Cells (Vero or MRC-5) were grown to confluence in 24 well multi-dishes (well diameter = 1.5cm). The drained cell monolayers were each infected with approximately 50 infectious particles of herpes simplex virus 1 (HSV-1; strain HFEM) or herpes simplex virus 2 (HSV-2; strain MS) in 100µl of phosphate-buffered saline. The virus was adsorbed for 1 hour at room temperature. After adsorption, residual inoculum was removed from each well and replaced with 0.5ml of Eagle's MEM containing 5% newborn calf serum and 0.9% agarose (A37). Once the agarose had set, dilutions of the test compound, which had been prepared in Eagle's MEM (containing 5% newborn calf serum), were added, each well receiving 0.5ml of liquid overlay. The test compound was diluted to give the following series of concentrations: 200, 60, 20, 6....0.06µg/ml; final concentrations in the assay ranged, therefore, between 100µg/ml and 0.03µg/ml. […]
Cultures were fixed in formal saline, the agarose overlays were carefully washed off, and then the cell monolayers were stained with carbol fuchsin. […] The IC₅₀ (concentration to drug which inhibits plaque number by 50% relative to the number of plaques observed in virus control monolayers) of the test compound was calculated. In addition, the monolayers were examined for evidence of drug-induced cytotoxicity; the minimum concentration at which cytotoxicity occurs was recorded.

[4] = system: HSV-1 (SC16 strain, MRC-5 cells); experiment: Plaque reduction test for herpes simplex virus 1; assay type: cell-based; details: Human alphaherpesvirus 1, MRC5, plaque number reduced by 50%
[5] = Drug-induced cytotoxicity in uninfected cell monolayers; assay type: cell-based; details: uninfected cells, not cytotoxic at concentrations up to 100 µg/ml, read-out: concentration at which cytotoxicity occurs
Method: Cultures were fixed in formal saline, the agarose overlays were carefully washed off, and then the cell monolayers were stained with carbol fuchsin. A stereo microscope was used to count plaques. The IC₅₀ (concentration to drug which inhibits plaque number by 50% relative to the number of plaques observed in virus control monolayers) of the test compound was calculated. In addition, the monolayers were examined for evidence of drug-induced cytotoxicity; the minimum concentration at which cytotoxicity occurs was recorded.

## Nc1ncc2ncn(OC[C@@H](O)CO)c2n1 [Example, (S)-2-Amino-9-(2,3-dihydroxyprop-l-oxy)purine]
[1]
  potency as an antiviral agent: greater potency

## Nc1nc2c(ncn2OC[C@@H](O)CO)c(=O)[nH]1 [Preparation Example, (S)-9-(2,3-Dihydroxyprop-1-oxy)quanine]
[2]
  IC50: 10 µg/mL (≈ 41.5 µM)
[3]
  IC50: 0.06 µg/mL (≈ 0.249 µM)
[4]
  IC50: 0.7 µg/mL (≈ 2.9 µM)
[5]
  MCC: > 100 µg/mL
